The results in this text go back to publication PMC8151276, “An Integrated Approach toward NanoBRET Tracers for Analysis of GPCR Ligand Engagement” (Molecules, 2021).

What all share (assay type): binding
Test [1] addresses T1, ACKR3 (Homo sapiens, UniProt P25106).
T1 construct: purchased Promega (in-house HiBiT-GPCR construct library, NanoBRET)
Description: NanoBRET screen HiBiT-ACKR3 in HEK293. Here is the method:
(§1) Each tracer candidate was screened across the entire library of HiBiT-GPCR constructs using NanoBRET as the detection modality. As depicted in Figure 4A, the specificity of interactions was evaluated through decrease in BRET due to competitive displacement of a bound tracer by excess parental compound. Each tracer was analyzed for binding to each HiBiT-GPCR fusion in the absence and in the presence of competing parental compound. Briefly, HEK293 cells were transfected with HiBiT-GPCR constructs diluted into promoterless DNA to reduce expression and maximize translocation to the cell surface. Each tracer candidate was then screened at concentrations of 1 μM and 0.1 μM across cells expressing these fusions. Cells were treated for 1.5 h with tracer either alone or in the presence of 20 μM competing parental compound (i.e., control). BRET was measured upon addition of purified LgBiT and subsequent complementation with HiBiT genetically fused to a GPCR. The specificity of interactions was assessed through a decrease in BRET signal due to competitive displacement of the bound tracer. To further gauge the robustness of these interactions, the fold response over the control (i.e., BRETtracer/BRETcontrol) was calculated. We chose a 1.5-fold response, which translates to ≥7-fold signal over noise as the minimal threshold required to score an interaction as positive. […]. Below we highlight the screening results obtained for our exemplary fluorescent tracers based on Clozapine, Amitriptyline and AZD1283.
(§2) HiBiT-GPCR DNA constructs were diluted in 10 mM Tris pH 8 to a final concentration of 0.01 μg/μL, arrayed in 96-well plates and stored at −20 °C. For transfection, HEK293 cells were suspended in Opti-MEM (without phenol red) supplemented with 2% fetal bovine serum (Seradigm) and 100 units/mL penicillin–streptomycin (Gibco) at a final concentration of 220,000 cells/mL and dispensed into white 96-well plates at 90 μL/well. Subsequent transfections and screens were carried using an Agilent Bravo Automated Liquid Handling Platform. First, the 96-well HiBiT DNA arrays were diluted 25-fold in Opti-MEM (without serum or phenol red) to a final concentration of 0.0004 μg/μL and 20 μL of the diluted DNAs were transferred into new 96-well plates. Next, promoterless carrier DNA (1 μg/μL) was diluted 25-fold (0.04 μg/μL) and then dispensed into the diluted arrays at 20 μL/well. Following brief mixing, Viafect transfection reagent (Promega) diluted 16-fold into Opti-MEM was dispensed into the plates at 40 μL/well. After mixing by pipetting, plates were incubated for 10 min on the pipetting station deck. The DNA-transfection reagent complexes were then added to plates containing cells. To facilitate the screen, 10 μL of DNA-transfection reagent complexes were added in duplicates to the top 4 and bottom 4 rows, resulting in two identical 48-well arrays per plate. Plates with transfected cells were incubated for 18–20 h at 37 °C/5% CO2. A screen of each tracer across the entire library using two different concentrations requires duplicate plates of transfected cells. Depending on the number of tracers being screened, transfections can be scaled up using the same ratios. The next day, for each tracer, four 20× screening solutions in tracer dilution buffer (Promega) were prepared: two duplicates at final concentration of 20 μM and two duplicates at a final concentration of 2 μM. A competing unmodified compound was added to one of each duplicate at a final concentration of 400 μM. The four resulting solutions were diluted 4-fold in Opti-MEM without serum or phenol red to generate 5× solutions (5 µM and 0.5 µM tracer +/− 100 μM competing compound). To screen the library, a BioTek MultiFlo FX liquid dispenser was used to dispense 22.5 µL of tracer solution to the top 4 rows and 22.5 µL tracer + competing compound solution to the 4 bottom rows. Plates were briefly mixed on an orbital shaker and incubated for 1.5 h at room temperature. […]
On the technique in general: In BRET a luciferase serves as donor, and the signal depends on an acceptor being close.

Test [2] concerns the target T2, FZD7 (Homo sapiens, UniProt O75084).
T2 construct: purchased Promega (in-house HiBiT-GPCR construct library, NanoBRET)
Description: NanoBRET screen HiBiT-FZD7 in HEK293. Here is the method: as §1, §2

Test [3] deals with T3, HRH3 (Homo sapiens, UniProt Q9Y5N1).
T3 construct: purchased Promega (in-house HiBiT-GPCR construct library, NanoBRET)
Description: NanoBRET screen HiBiT-HRH3 in HEK293. The procedure:
as §1, §2

The target of test [4] is T4, LTB4R2 (Homo sapiens, UniProt Q9NPC1).
T4 construct: purchased Promega (in-house HiBiT-GPCR construct library, NanoBRET)
T4 sequence (Q9NPC1 1-358): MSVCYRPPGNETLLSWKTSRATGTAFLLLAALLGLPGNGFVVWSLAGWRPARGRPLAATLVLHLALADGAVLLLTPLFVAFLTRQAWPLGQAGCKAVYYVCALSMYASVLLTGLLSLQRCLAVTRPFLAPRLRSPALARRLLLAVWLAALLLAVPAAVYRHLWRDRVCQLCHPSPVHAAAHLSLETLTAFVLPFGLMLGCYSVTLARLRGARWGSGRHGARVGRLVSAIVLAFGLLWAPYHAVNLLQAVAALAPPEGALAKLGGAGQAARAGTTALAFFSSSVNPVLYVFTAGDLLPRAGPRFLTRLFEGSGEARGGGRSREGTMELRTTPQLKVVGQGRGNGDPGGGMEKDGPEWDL
The test is described as follows: NanoBRET screen HiBiT-LTB4R2 in HEK293. The procedure: as §1, §2

The target in test [5] is T5, PTGER1 (Homo sapiens, UniProt P34995).
T5 construct: purchased Promega (in-house HiBiT-GPCR construct library, NanoBRET)
T5 sequence (P34995 1-402): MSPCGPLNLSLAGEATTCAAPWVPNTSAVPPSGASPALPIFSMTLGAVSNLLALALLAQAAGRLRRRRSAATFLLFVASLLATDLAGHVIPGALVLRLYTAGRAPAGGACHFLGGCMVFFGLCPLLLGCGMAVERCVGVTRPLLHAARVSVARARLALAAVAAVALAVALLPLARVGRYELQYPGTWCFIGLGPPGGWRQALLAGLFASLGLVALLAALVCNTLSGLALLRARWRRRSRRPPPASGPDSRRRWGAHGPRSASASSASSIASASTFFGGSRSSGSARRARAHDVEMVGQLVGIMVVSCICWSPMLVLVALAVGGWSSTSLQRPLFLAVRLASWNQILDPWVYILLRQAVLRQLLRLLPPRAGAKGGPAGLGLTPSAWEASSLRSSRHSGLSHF
Description: NanoBRET screen HiBiT-PTGER1 in HEK293. The procedure: as §1, §2

In test [6] the target is T6, GRM2 (Homo sapiens, UniProt Q14416).
T6 construct: purchased Promega (in-house HiBiT-GPCR construct library, NanoBRET)
Description: NanoBRET screen HiBiT-GRM2 in HEK293. To be noted: GRM2. Here is the method: as §1, §2

The mark [7] stands for this setting: tracer at 0.1μM, listed as amitriptyline-b-2-NB590.
Where [8] appears, read: tracer at 1μM, listed as amitriptyline-b-2-NB590.

T3 sequence (Q9Y5N1 whole entry): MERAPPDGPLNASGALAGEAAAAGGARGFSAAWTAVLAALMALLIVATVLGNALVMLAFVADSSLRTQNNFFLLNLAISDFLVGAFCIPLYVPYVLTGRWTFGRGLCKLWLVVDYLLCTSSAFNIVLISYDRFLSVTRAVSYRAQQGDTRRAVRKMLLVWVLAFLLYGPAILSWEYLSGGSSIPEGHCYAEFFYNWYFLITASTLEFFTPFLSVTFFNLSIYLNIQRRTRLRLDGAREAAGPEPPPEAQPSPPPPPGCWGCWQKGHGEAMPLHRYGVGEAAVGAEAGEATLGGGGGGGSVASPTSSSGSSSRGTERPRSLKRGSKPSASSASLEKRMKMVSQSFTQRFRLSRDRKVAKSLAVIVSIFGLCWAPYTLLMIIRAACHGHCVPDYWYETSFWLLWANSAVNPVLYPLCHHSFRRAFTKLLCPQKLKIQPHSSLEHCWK
T1 sequence (P25106 whole entry): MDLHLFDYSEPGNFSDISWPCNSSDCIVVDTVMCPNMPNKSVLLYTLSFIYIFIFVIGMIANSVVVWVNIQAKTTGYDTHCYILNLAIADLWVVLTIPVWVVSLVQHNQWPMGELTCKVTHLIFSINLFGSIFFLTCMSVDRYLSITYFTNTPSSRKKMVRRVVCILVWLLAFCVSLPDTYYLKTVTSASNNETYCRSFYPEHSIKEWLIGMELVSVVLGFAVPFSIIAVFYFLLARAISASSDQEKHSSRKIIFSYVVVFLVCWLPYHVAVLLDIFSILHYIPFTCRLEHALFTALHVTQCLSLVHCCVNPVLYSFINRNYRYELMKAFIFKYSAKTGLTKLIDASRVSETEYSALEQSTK
T6 sequence (Q14416 19-872): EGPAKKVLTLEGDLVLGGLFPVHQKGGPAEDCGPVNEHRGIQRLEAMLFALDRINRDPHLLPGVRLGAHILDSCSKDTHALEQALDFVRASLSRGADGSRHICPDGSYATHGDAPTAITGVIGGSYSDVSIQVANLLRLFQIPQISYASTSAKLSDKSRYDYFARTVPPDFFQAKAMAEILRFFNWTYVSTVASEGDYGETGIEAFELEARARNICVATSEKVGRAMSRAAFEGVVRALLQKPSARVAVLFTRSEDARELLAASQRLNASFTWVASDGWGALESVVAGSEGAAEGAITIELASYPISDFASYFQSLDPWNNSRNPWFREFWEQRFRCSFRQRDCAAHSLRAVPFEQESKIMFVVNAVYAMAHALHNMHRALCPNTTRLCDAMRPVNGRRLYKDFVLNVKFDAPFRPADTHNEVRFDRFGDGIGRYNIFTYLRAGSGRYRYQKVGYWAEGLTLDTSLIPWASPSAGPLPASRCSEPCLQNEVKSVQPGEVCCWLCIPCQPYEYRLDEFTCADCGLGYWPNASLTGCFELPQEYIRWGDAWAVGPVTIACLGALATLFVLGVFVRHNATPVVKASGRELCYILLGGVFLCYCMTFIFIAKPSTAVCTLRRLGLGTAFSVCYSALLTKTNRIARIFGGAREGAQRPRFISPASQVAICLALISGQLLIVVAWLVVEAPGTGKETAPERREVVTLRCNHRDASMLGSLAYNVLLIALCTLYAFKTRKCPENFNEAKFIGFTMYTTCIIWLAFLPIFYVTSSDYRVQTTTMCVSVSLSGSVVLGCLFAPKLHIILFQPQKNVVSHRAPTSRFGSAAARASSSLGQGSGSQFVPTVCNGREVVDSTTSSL

On to `COc1ccccc1N1CCN(CCCCN2C(=O)c3ccc(CNC(=O)CCOCCNC(=O)c4ccc(CNC(=O)CCc5ccc6n5[B-](F)(F)[N+]5=C(c7ccc[nH]7)C=CC5=C6)cc4)cc3C2=O)CC1` [NAN-190-3-NB590], for which the “NanoBRET Fold Response” value in test [1] (ACKR3, tracer 0.1μM) came out at 0.77; in test [1] (ACKR3, tracer 1μM), 1.10; in test [2] (FZD7, tracer 0.1μM), 0.94; in test [2] (FZD7, tracer 1μM) it was 1.27; in test [3] (HRH3, tracer 0.1μM), 1.38; in test [3] (HRH3, tracer 1μM) it was 0.93. The “NanoBRET Fold Response” value is given as 0.76 in test [4] (LTB4R2, tracer 0.1μM); 1.30 in test [4] (LTB4R2, tracer 1μM); 0.89 in test [5] (PTGER1, tracer 0.1μM); 1.11 in test [5] (PTGER1, tracer 1μM); 1.03 in test [6] (tracer 0.1μM); 1.03 in test [6] (tracer 1μM).
Regarding `N#CN=C(NCCCOc1cccc(CN2CCCCC2)c1)NCCNC(=O)CCOCCOCCOCCOCCNC(=O)CCc1ccc2n1[B-](F)(F)[N+]1=C(c3ccc[nH]3)C=CC1=C2` [Aminopotentidine-2-NB590], the “NanoBRET Fold Response” value is 0.99 in test [1] (ACKR3, tracer 0.1μM); 1.08 in test [1] (ACKR3, tracer 1μM); 0.94 in test [2] (FZD7, tracer 0.1μM); 0.99 in test [2] (FZD7, tracer 1μM); 2.54 in test [3] (HRH3, tracer 0.1μM); 2.06 in test [3] (HRH3, tracer 1μM). The “NanoBRET Fold Response” value was found to be 0.96 in test [4] (LTB4R2, tracer 0.1μM); 1.04 in test [4] (LTB4R2, tracer 1μM); 0.97 in test [5] (PTGER1, tracer 0.1μM); 0.95 in test [5] (PTGER1, tracer 1μM); 1.05 in test [6] (tracer 0.1μM); 0.99 in test [6] (tracer 1μM).
On to `CN(C)CCC=C1c2ccccc2CCc2ccc(C(=O)NCCNC(=O)CCOCCOCCOCCOCCNC(=O)CCc3ccc4n3[B-](F)(F)[N+]3=C(c5ccc[nH]5)C=CC3=C4)cc21` [Amitriptyline-b-2-NB590], for which the “NanoBRET Fold Response” value in test [1] (setting [7]) was determined as 1.17; in test [1] (setting [8]), 1.07; in test [2] (setting [7]) it was 1.16; in test [2] (setting [8]) it was 1.16; in test [3] (setting [7]), 1.62; in test [3] (setting [8]), 1.31. For the same molecule, the “NanoBRET Fold Response” value in test [4] (setting [7]) is 1.03; in test [4] (setting [8]) it was 1.03; in test [5] (tracer at 0.1μM) it was 1.07; in test [5] (tracer at 1μM) it was 1.01; in test [6] (tracer 0.1μM), 0.97; in test [6] (tracer 1μM), 0.98.
With `COc1ccccc1N1CCN(CCCCN2C(=O)c3ccc(CNC(=O)CCOCCOCCOCCOCCNC(=O)CCc4ccc5n4[B-](F)(F)[N+]4=C(c6ccc[nH]6)C=CC4=C5)cc3C2=O)CC1` [NAN-190-2-NB590], the “NanoBRET Fold Response” value was found to be 1.09 in test [1] (ACKR3, tracer 0.1μM); 1.00 in test [2] (FZD7, tracer 0.1μM); 1.03 in test [2] (FZD7, tracer 1μM); 0.98 in test [3] (HRH3, tracer 0.1μM); 0.97 in test [3] (HRH3, tracer 1μM); 0.95 in test [4] (LTB4R2, tracer 0.1μM). In addition, the “NanoBRET Fold Response” value in test [4] (LTB4R2, tracer 1μM) is listed as 1.05; in test [5] (PTGER1, tracer 0.1μM), 0.93; in test [5] (PTGER1, tracer 1μM) it was 1.04; in test [6] (tracer 0.1μM) it was 0.26; in test [6] (tracer 1μM), 1.00.
In the case of `O=C(CCOCCOCCOCCOCCNC(=O)CCc1ccc2n1[B-](F)(F)[N+]1=C(c3ccc[nH]3)C=CC1=C2)NCCCN1CCN(C2=Nc3ccccc3Oc3ccc(Cl)cc32)CC1` [Loxapine-a-2-NB590], the “NanoBRET Fold Response” value in test [1] (ACKR3, tracer 0.1μM) was 0.30; in test [1] (ACKR3, tracer 1μM), 1.02; in test [2] (FZD7, tracer 0.1μM), 1.03; in test [2] (FZD7, tracer 1μM), 1.05; in test [3] (HRH3, tracer 0.1μM) it was 1.06; in test [3] (HRH3, tracer 1μM), 1.01. Besides, the “NanoBRET Fold Response” value in test [4] (LTB4R2, tracer 0.1μM) amounted to 0.90; in test [4] (LTB4R2, tracer 1μM), 0.95; in test [5] (PTGER1, tracer 0.1μM), 1.09; in test [5] (PTGER1, tracer 1μM) it was 1.08; in test [6] (tracer 0.1μM), 1.00; in test [6] (tracer 1μM), 1.25.
For the molecule `CCCn1c(=O)c2[nH]c(-c3ccc(OCC(=O)NCCNC(=O)CCOCCNC(=O)c4ccc(CNC(=O)CCc5ccc6n5[B-](F)(F)[N+]5=C(c7ccc[nH]7)C=CC5=C6)cc4)cc3)nc2n(CCC)c1=O` [XAC-3-NB590], the “NanoBRET Fold Response” value was determined as 1.02 in test [1] (ACKR3, tracer 0.1μM); 1.49 in test [1] (ACKR3, tracer 1μM); 1.09 in test [2] (FZD7, tracer 0.1μM); 1.01 in test [2] (FZD7, tracer 1μM); 0.81 in test [3] (HRH3, tracer 0.1μM); 1.33 in test [3] (HRH3, tracer 1μM). In addition, the “NanoBRET Fold Response” value in test [4] (LTB4R2, tracer 0.1μM) is 0.93; in test [4] (LTB4R2, tracer 1μM), 0.98; in test [5] (PTGER1, tracer 0.1μM), 1.06; in test [5] (PTGER1, tracer 1μM) it was 1.16; in test [6] (tracer 0.1μM), 1.01; in test [6] (tracer 1μM), 1.03.
For the molecule `CCOC(=O)c1cc(C#N)c(N2CCC(C(=O)NS(=O)(=O)Cc3ccccc3/C=C/C(=O)NCCNC(=O)CCc3ccc4n3[B-](F)(F)[N+]3=C(c5ccc[nH]5)C=CC3=C4)CC2)nc1C` [AZD1283-1-NB590], the “NanoBRET Fold Response” value in test [1] (ACKR3, 0.1μM) is 1.06; in test [1] (ACKR3, 1μM) it was 1.19; in test [2] (FZD7, 0.1μM), 1.03; in test [2] (FZD7, 1μM) it was 1.04; in test [3] (HRH3, 0.1μM) it was 1.16; in test [3] (HRH3, 1μM) it was 0.87. The “NanoBRET Fold Response” value in test [4] (LTB4R2, 0.1μM) was determined as 1.17; in test [4] (LTB4R2, 1μM) it was 1.18; in test [5] (PTGER1, 0.1μM), 1.17; in test [5] (PTGER1, 1μM) it was 1.14; in test [6] (0.1μM), 1.00; in test [6] (1μM), 0.43.
